Laboratory results reported in patent publication USRE48335E1, “Polymyxin derivatives as antimicrobial compounds” (priority 2014, dated 2020).
Like-named read-outs stand apart in the source and are kept apart here. Positions of bridges follow the written chain, without caps; N, C: chain ends. Non-standard residues stand in square brackets, D forms with d. Residues, ends and D or L forms follow the SMILES beside them. *: point of attachment. Hydrocinnamoyl = O=C(CCc1ccccc1)*; X41 = O=S(=O)(c1ccc(Cl)cc1Cl)*; X3 = O=C(c1ccc(Cl)cc1Cl)*; Octanoyl = CCCCCCCC(=O)*; Orn = NCCC[C@H](N)C(=O)O; Dab = NCC[C@H](N)C(=O)O; Abu = CC[C@H](N)C(=O)O; Dap = NC[C@H](N)C(=O)O

Assays:
Acinetobacter baumannii = tested on: Acinetobacter baumannii
Procedure, shortened: (§1)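 Using polymyxin B sulphate as comparator control, the trifluoroacetate-salt lipopeptides were assayed in CAMHB by broth microdilution to CLSI M100-S18, and MICs recorded.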

Enterobacter cloacae = tested on: Enterobacter cloacae
Procedure, shortened: as §1

Pseudomonas aeruginosa = tested on: Pseudomonas aeruginosa
Procedure, shortened: as §1

[1] = Acinetobacter baumannii ATCC 17978, broth microdilution in CAMHB, TFA salt
[2] = Acinetobacter baumannii ATCC 19606, broth microdilution in CAMHB, TFA salt
[3] = Acinetobacter baumannii FADDI-AB034, broth microdilution in CAMHB, TFA salt
[4] = Enterobacter cloacae FADDI-EC001, broth microdilution in CAMHB, TFA salt
[5] = Enterobacter cloacae FADDI-EC003, broth microdilution in CAMHB, TFA salt
[6] = Enterobacter cloacae FADDI-EC006, broth microdilution in CAMHB, TFA salt
[7] = Pseudomonas aeruginosa ATCC 27853, broth microdilution in CAMHB, TFA salt
[8] = Pseudomonas aeruginosa FADDI-PA022, broth microdilution in CAMHB, TFA salt
[9] = Pseudomonas aeruginosa FADDI-PA025, broth microdilution in CAMHB, TFA salt

Molecule	Minimum inhibitory concentration (MIC), Ab ATCC 17978 (Acinetobacter baumannii; [1]) [mg/L]	Minimum inhibitory concentration (MIC), Ab ATCC 19606 (Acinetobacter baumannii; [2]) [mg/L]	Minimum inhibitory concentration (MIC), Ab FADDI-AB034 (Acinetobacter baumannii; [3]) [mg/L]	Minimum inhibitory concentration (MIC), Ec FADDI-EC001 (Enterobacter cloacae; [4]) [mg/L]	Minimum inhibitory concentration (MIC), Ec FADDI-EC003 (Enterobacter cloacae; [5]) [mg/L]	Minimum inhibitory concentration (MIC), Ec FADDI-EC006 (Enterobacter cloacae; [6]) [mg/L]	Minimum inhibitory concentration (MIC), Pa ATCC 27853 (Pseudomonas aeruginosa; [7]) [mg/L]	Minimum inhibitory concentration (MIC), Pa FADDI-PA022 (Pseudomonas aeruginosa; [8]) [mg/L]	Minimum inhibitory concentration (MIC), Pa FADDI-PA025 (Pseudomonas aeruginosa; [9]) [mg/L]	also measured
CC[C@@H]1NC(=O)[C@@H](CC(C)C)NC(=O)[C@H](CCN)NC(=O)[C@@H](NC(=O)[C@H](CN)NC(=O)[C@@H](NC(=O)[C@H](CCN)NC(=O)CCc2ccccc2)[C@@H](C)O)CCNC(=O)[C@H]([C@@H](C)O)NC(=O)[C@H](CCN)NC(=O)[C@H](CCN)NC1=O [Compound 145] (Hydrocinnamoyl-[Dab]T[Dap][Dab][Dab][dL][Abu][Dab][Dab]T; lactam 4-C)	0.5	1	0.5	0.5	<0.125	<0.125	0.5	0.5	1	–
CC[C@@H]1NC(=O)[C@@H](CC(C)C)NC(=O)[C@H](CCN)NC(=O)[C@@H](NC(=O)[C@H](CCCN)NC(=O)[C@@H](NC(=O)[C@H](CCN)NC(=O)c2ccc(Cl)cc2Cl)[C@@H](C)O)CCNC(=O)[C@H]([C@@H](C)O)NC(=O)[C@H](CCN)NC(=O)[C@H](CCN)NC1=O [Compound 147] (X3-[Dab]T[Orn][Dab][Dab][dL][Abu][Dab][Dab]T; lactam 4-C)	4	4	2	<0.125	1	1	1	1	>32	–
CC[C@@H]1NC(=O)[C@@H](CC(C)C)NC(=O)[C@H](CCN)NC(=O)[C@@H](NC(=O)[C@H](CN)NC(=O)[C@@H](NC(=O)[C@H](CCN)NS(=O)(=O)c2ccc(Cl)cc2Cl)[C@@H](C)O)CCNC(=O)[C@H]([C@@H](C)O)NC(=O)[C@H](CCN)NC(=O)[C@H](CCN)NC1=O [Compound 148] (X41-[Dab]T[Dap][Dab][Dab][dL][Abu][Dab][Dab]T; lactam 4-C)	0.5	2	1	2	4	1	1	1	16	–
CCCCCCCC(=O)N[C@@H](CCN)C(=O)N[C@H](C(=O)N[C@@H](CCN)C(=O)N[C@H]1CCCNC(=O)[C@H]([C@@H](C)O)NC(=O)[C@H](CCN)NC(=O)[C@H](CCN)NC(=O)[C@H]([C@@H](C)O)NC(=O)[C@@H](CC(C)C)NC(=O)[C@H](CCN)NC1=O)[C@@H](C)O [Compound 149] (Octanoyl-[Dab]T[Dab][Orn][Dab][dL]T[Dab][Dab]T; lactam 4-C)	–	–	–	–	–	–	–	–	–	Minimum inhibitory concentration (MIC), Ab ATCC 17978 (Acinetobacter baumannii): >32 mg/L; Minimum inhibitory concentration (MIC), Ab ATCC 19606 (Acinetobacter baumannii): >32 mg/L; Minimum inhibitory concentration (MIC), Ab FADDI-AB034 (Acinetobacter baumannii): >32 mg/L; Minimum inhibitory concentration (MIC), Ec FADDI-EC001 (Enterobacter cloacae): >32 mg/L; Minimum inhibitory concentration (MIC), Ec FADDI-EC003 (Enterobacter cloacae): >32 mg/L; Minimum inhibitory concentration (MIC), Ec FADDI-EC006 (Enterobacter cloacae): >32 mg/L; Minimum inhibitory concentration (MIC), Pa ATCC 27853 (Pseudomonas aeruginosa): >32 mg/L; Minimum inhibitory concentration (MIC), Pa FADDI-PA022 (Pseudomonas aeruginosa): >32 mg/L; Minimum inhibitory concentration (MIC), Pa FADDI-PA025 (Pseudomonas aeruginosa): >32 mg/L
colistin [reference compound]	–	–	–	–	–	–	–	–	–	Minimum inhibitory concentration, Ab A ATCC 17978 (Acinetobacter baumannii; Acinetobacter baumannii ATCC 17978, broth microdilution in CAMHB): 0.5 mg/L; Minimum inhibitory concentration, Ab ATCC 19606 (Acinetobacter baumannii; Acinetobacter baumannii ATCC 19606, broth microdilution in CAMHB): 1 mg/L; Minimum inhibitory concentration, Ab FADDI-AB034 (Acinetobacter baumannii; Acinetobacter baumannii FADDI-AB034, broth microdilution in CAMHB): 0.5 mg/L; Minimum inhibitory concentration, Ec FADDI-EC001 (Enterobacter cloacae; Enterobacter cloacae FADDI-EC001, broth microdilution in CAMHB): 0.25 mg/L; Minimum inhibitory concentration, Ec FADDI-EC003 (Enterobacter cloacae; Enterobacter cloacae FADDI-EC003, broth microdilution in CAMHB): <0.125 mg/L; Minimum inhibitory concentration, Ec FADDI-EC006 (Enterobacter cloacae; Enterobacter cloacae FADDI-EC006, broth microdilution in CAMHB): <0.125 mg/L; Minimum inhibitory concentration, Pa ATCC 27853 (Pseudomonas aeruginosa; Pseudomonas aeruginosa ATCC 27853, broth microdilution in CAMHB): 1 mg/L; Minimum inhibitory concentration, Pa FADDI-PA022 (Pseudomonas aeruginosa; Pseudomonas aeruginosa FADDI-PA022, broth microdilution in CAMHB): 1 mg/L; Minimum inhibitory concentration, Pa FADDI-PA025 (Pseudomonas aeruginosa; Pseudomonas aeruginosa FADDI-PA025, broth microdilution in CAMHB): 2 mg/L
